We go through 104 molecules from PubChem BioAssay AID1996.

Values after ≈ are worked out from the molar mass of the structure shown. Bounds are passed on as bounds.

For this data set the following is noted: buffer; pH 7.4; 200.0 µM.
The molecule `COc1cc(C(=S)N2CCCC2)cc(OC)c1OC` had a kinetic solubility of over 42.2 µg/mL. Under `CCCn1c(C(=O)c2ccccc2)nc2ccccc21` stands 9.7 µg/mL (≈ 36.7 µM). Turning to `Cc1oc(-c2cccc(C(F)(F)F)c2)nc1CN1CCC[C@H]1CO`, the kinetic solubility was over 51.1 µg/mL. In the case of `O=C(CSc1ccc(F)cc1)Nc1cccc(S(=O)(=O)N2CCOCC2)c1` it was over 61.6 µg/mL; in that of `Cc1cc([N+](=O)[O-])ccc1NC(=O)CCC(=O)N1CCCCC1`, over 47.9 µg/mL; in that of `O=C(Nc1ccccn1)c1ccc2c(=O)n3c(nc2c1)CCCCC3`, over 50.2 µg/mL. As for `Cn1c(CNC(=O)c2ccccc2F)cc2ccccc21`, the kinetic solubility worked out at 10.1 µg/mL (≈ 35.8 µM). In the case of `CC1(C)Nc2ccccc2C(=O)N1c1ccc(Br)cc1` it was 12.1 µg/mL (≈ 36.5 µM); in that of `Cn1cccc1C(=O)OCC(=O)Nc1ccc2c(c1)OCCO2`, 4.8 µg/mL (≈ 15.2 µM). In the case of `Nc1c(Cl)ncnc1NCc1cccnc1` it was over 35.4 µg/mL; in that of `N#Cc1ccc(OCC(=O)NC2=NCCS2)cc1`, over 39.2 µg/mL; in that of `COc1ccc(/C(C)=N/NC2=NCCN2)cc1Cl`, over 40 µg/mL. In the case of `Cc1ccc(OCCC(=O)OCC(=O)Nc2ccccc2)cc1` it was 16.5 µg/mL (≈ 52.7 µM); in that of `O=[N+]([O-])c1ccccc1OCCN1CCCC1`, 25.5 µg/mL (≈ 108 µM). With `CC1(C)Cc2ccccc2C(/C(C#N)=N/O)=N1`, the solubility (kinetic) was over 34.1 µg/mL.

As to `CNC(=O)/C(C#N)=C/c1c(N2CCCCCC2)nc2c(C)cccn2c1=O`, the kinetic solubility is 50.4 µg/mL (≈ 138 µM). In turn, `COc1ccc(CCNC(=O)c2cc(C3CC3)on2)cc1OC` returned a kinetic solubility of over 47.5 µg/mL. In the case of `Cc1ccc(C)c(NC(=O)CN(C)C(=O)/C=C/c2ccco2)c1` it was over 46.9 µg/mL. For `CC1CCC(NC(=O)C(Cc2ccccc2)n2cccc2)CC1` (centres undefined), the solubility (kinetic) was 19.2 µg/mL (≈ 61.8 µM). `COc1cc(S(=O)(=O)N2CCN(Cc3ccc4c(c3)OCO4)CC2)ccc1NC(C)=O.Cl` showed a solubility (kinetic) of 10.5 µg/mL. Under `CC(C)(C)N(Cc1ccccc1)C(=O)c1ccncc1` stands over 40.3 µg/mL; under `Cc1nc(SCC(=O)NC2CCS(=O)(=O)C2)c2c3c(sc2n1)CCC3` (centres undefined), 7.3 µg/mL (≈ 18.4 µM).

In turn, `Cc1nc(Nc2nc3ccccc3o2)nc(C)c1C` came in with a kinetic solubility of 15.8 µg/mL (≈ 62.1 µM). In the case of `COc1ccc(-c2noc(CCC(=O)NCc3ccco3)n2)cc1` it was 39.7 µg/mL (≈ 121 µM). In the case of `O=[N+]([O-])c1ccc(O)c([N+](=O)[O-])c1` it was over 27.6 µg/mL; in that of `CC(=O)c1ccccc1NC(=O)CSc1nc2ccccc2c(=O)n1CCCN1CCOCC1`, 1.8 µg/mL (≈ 3.75 µM). In the case of `CCOc1ccc(NC(=O)CNC(=O)c2cccs2)cc1` it was 7.8 µg/mL (≈ 25.6 µM); in that of `CC(C)CC(=O)c1c[nH]c(C(=O)NCc2ccccc2)c1`, 1.6 µg/mL (≈ 5.63 µM); in that of `C/C(=N\NC=O)c1ccncc1`, over 24.5 µg/mL. As to `COC(=O)Cn1c(=O)c(C)nc2ccccc21`, the solubility (kinetic) was over 34.8 µg/mL. `OCCNc1cc(Cl)ncn1` came in with a kinetic solubility of over 26 µg/mL. In the case of `COCc1cc(=O)[nH]c(Cc2c(Cl)cccc2Cl)n1` it was 1.7 µg/mL (≈ 5.68 µM). Under `O=C(Nc1ccon1)c1sc2cc(Cl)ccc2c1Cl` stands under 0.3 µg/mL.

For `O=C(Cn1cncn1)NCCCc1ccccc1`, the kinetic solubility was over 36.6 µg/mL. Under `O=C(CC12CC3CC(CC(C3)C1)C2)NCc1ccccc1` stands 0.6 µg/mL (≈ 2.12 µM); under `COCCNC(=O)Cn1nc(-c2ccc(C)cc2)ccc1=O`, over 45.2 µg/mL. Under `O=C(O)COCc1nc2ccccc2s1` stands 31.7 µg/mL (≈ 142 µM). Under `Cc1ccc(CNC(=O)c2cc(=O)c3ccc(C)cc3o2)cc1` stands 2.6 µg/mL (≈ 8.46 µM); under `Cc1cc(NC(=O)CCCn2cnc([N+](=O)[O-])n2)no1`, over 42 µg/mL; under `Cc1cc(/C=C2\NC(=S)NC2=O)c(C)n1-c1cccnc1`, 4.8 µg/mL (≈ 16.1 µM).

As to `O=C1CCCc2c1nc(-c1ccccc1F)n2O`, the solubility (kinetic) was over 36.9 µg/mL. Under `CCCCCCCN1C2=NCCN2c2ccccc21.Cl` stands over 44.1 µg/mL. Molecule `O=C(c1c(F)cccc1F)N(Cc1ccccc1)Cc1ccccc1` came in with a solubility (kinetic) of 8.4 µg/mL (≈ 24.9 µM). In the case of `Cc1ccc(S(=O)(=O)N2CC(C)C(=O)CC2C)cc1` (centres undefined) it was 38.6 µg/mL (≈ 137 µM); in that of `Nc1cc(S(=O)(=O)Nc2ccccc2Cl)ccc1N1CCCCC1`, 13.2 µg/mL (≈ 36.1 µM); in that of `O=C(Nc1ccc(C(=O)OC2CCCCC2)cc1)c1ccncc1`, 2.8 µg/mL (≈ 8.63 µM). Under `CCCNC(=O)N1CCC(Cc2ccccc2)CC1` stands over 39.1 µg/mL; under `COCCN(CC(=O)Nc1cccc(C)c1C)C(=O)Cc1ccsc1`, over 54.1 µg/mL; under `CC1CC(=O)N(c2ccc(Br)cc2)C(=O)C1`, over 42.3 µg/mL. Under `COCc1cc(=O)[nH]c(-c2csc(C)n2)n1` stands over 35.6 µg/mL; under `COc1cccc(S(=O)(=O)Nc2cccc(C(=O)N3CCCC3)c2)c1`, 47.9 µg/mL (≈ 133 µM).

`O=C(O)c1ccccc1-c1ccccc1C(=O)Nc1ccc(OC(F)(F)F)cc1` came in with a kinetic solubility of over 60.2 µg/mL. In the case of `O=C1Nc2ccccc2C1(O)c1ccccc1O` (centres undefined) it was over 36.2 µg/mL. In the case of `CC(=O)Nc1ccc(S(=O)(=O)N2CCN(c3ccc([N+](=O)[O-])cc3)CC2)cc1` it was 0.4 µg/mL (≈ 0.989 µM); in that of `O=C(c1cnc2ccccc2n1)N1CCN(c2ccc(C(F)(F)F)cn2)CC1`, 1 µg/mL (≈ 2.58 µM); in that of `Cc1nc2ccccc2n1CCc1ccccc1`, 30.1 µg/mL (≈ 127 µM). In the case of `O=C(Cn1cnc2cc([N+](=O)[O-])ccc2c1=O)N1CCN(S(=O)(=O)c2ccccc2)CC1` it was 11 µg/mL (≈ 24 µM); in that of `COCCNc1c2c(nc3ccccc13)CCC2.Cl`, over 41.8 µg/mL; in that of `Cc1ccc(C)c(NCC(=O)c2ccc(Cl)cc2)c1`, 2.2 µg/mL (≈ 8.04 µM).

For `CSc1ccccc1C(=O)OCC(=O)Nc1ccc(N2CCOCC2)cc1`, the kinetic solubility amounted to 9.3 µg/mL (≈ 24.1 µM). In the case of `c1ccc(Cn2c(NCc3ccccn3)nc3ccccc32)cc1` it was over 47.2 µg/mL. Under `O=C(NCCCNC(=O)c1ccccc1)c1ccccc1` stands over 42.4 µg/mL; under `CCOC(=O)c1ccc(NC(=O)NCc2ccccn2)cc1`, 42.2 µg/mL (≈ 141 µM). In the case of `COc1cccc(-c2nc(-c3ccccc3)c(-c3ccccc3)[nH]2)c1OCC(=O)O` it was over 60.1 µg/mL. In turn, `CCN(CC)S(=O)(=O)c1ccc(N2CCOCC2)c(NC(=O)c2ccco2)c1` returned a kinetic solubility of over 61.1 µg/mL. Molecule `O=C(Cc1cccs1)N1CCN(c2cccc(Cl)c2)CC1` displayed a kinetic solubility of 42.9 µg/mL (≈ 134 µM).

`COc1ccc2nc(-c3ccccn3)[nH]c2c1` showed a kinetic solubility of 24.8 µg/mL (≈ 110 µM). Under `CNCCCC1c2ccccc2C=Cc2ccccc21.Cl` stands over 45 µg/mL. Under `Cc1cccc(N2CCN(C(=O)c3cc4cc(F)ccc4[nH]3)CC2)c1C` stands 0.6 µg/mL (≈ 1.71 µM). Under `O=C(CSc1nccc(=O)[nH]1)c1cc2ccccc2o1` stands over 42.9 µg/mL. Take `COc1ccc(Nc2ncc(F)c(N3CCOCC3)n2)cc1`: the kinetic solubility was found to be 3.8 µg/mL (≈ 12.5 µM).

Take `CC(C)=CCN1CCN(Cc2ccc(C)s2)CC1CCO` (centres undefined): the kinetic solubility is 36.4 µg/mL (≈ 118 µM). In the case of `Fc1ccc(CNC(=S)NCc2cccc(Cl)c2)cc1` it was 27.2 µg/mL (≈ 88.1 µM). As for `CN(C)CCNC(=S)NC1CCCCC1`, the kinetic solubility came out at 32.7 µg/mL (≈ 143 µM). `COc1ccc(OC)c(NC(=O)CCCSc2ccccc2)c1` showed a kinetic solubility of 13.7 µg/mL (≈ 41.3 µM). In the case of `Cc1ccc(OCCn2c(C)nc3ccccc32)cc1` it was 9.6 µg/mL (≈ 36 µM). In the case of `O=C(CSc1nc(-c2ccccc2)ns1)N1CCOCC1` it was 1 µg/mL (≈ 3.11 µM).

In turn, `CC(=O)N/C(=C\c1ccccc1)C(=O)Nc1ccc(O)cc1` showed a solubility (kinetic) of over 44.4 µg/mL. In the case of `N=c1oc2ccccc2cc1C(=O)Nc1ccc(F)cc1` it was 0.6 µg/mL (≈ 2.13 µM). Under `Cn1c(=O)[nH]c(=O)c2c1[nH]c(=S)n2Cc1ccccc1` stands over 43.2 µg/mL. Molecule `Cc1ccccc1NC(=S)NC12CN3CN(CN(C3)C1)C2` returned a solubility (kinetic) of over 45.5 µg/mL.

As to `CC1CCCC(C)N1C(=O)COC(=O)COc1ccc(C#N)cc1` (centres undefined), the solubility (kinetic) is over 49.6 µg/mL. In the case of `O=C(CC1SC(N2CCCCC2)=NC1=O)Nc1ccc(C(=O)NCc2ccccc2)cc1` (centres undefined) it was 61.3 µg/mL (≈ 136 µM); in that of `O=C(CCN1C(=O)c2ccccc2C1=O)NCc1ccccc1`, over 46.3 µg/mL; in that of `O=C1CSC(c2cccc([N+](=O)[O-])c2)N1c1ccccc1F` (centres undefined), 37.7 µg/mL (≈ 118 µM). In the case of `COc1cc(C(=O)OCC(=O)NC2CCCC2)cc(OC)c1OC` it was over 50.6 µg/mL; in that of `O=C(/C=C/NCc1cccnc1)c1ccc(-c2ccccc2)cc1`, 2.8 µg/mL (≈ 8.91 µM).

With `CC(NC(=O)CCCC1CCCCC1)c1ccc(S(N)(=O)=O)cc1` (centres undefined), the solubility (kinetic) was over 52.9 µg/mL.

The molecule `CC(C)OCc1ccc(C(=O)N2CCN(CC(=O)N3CCCC3)CC2)cc1` returned a kinetic solubility of over 56 µg/mL. In the case of `CCC(OC(=O)c1nsc(Cl)c1Cl)C(=O)NCC1CCCO1` (centres undefined) it was 52.8 µg/mL (≈ 144 µM); in that of `CN(C)S(=O)(=O)N1CCN(CC(=O)Nc2ccc(F)cc2)CC1`, over 51.7 µg/mL. In the case of `Cn1cccc1C1CCCN1CC(=O)Nc1ccc(F)c(F)c1F` (centres undefined) it was over 50.6 µg/mL; in that of `COC(=O)c1cc(C(C)=O)c(C)[nH]c1=O`, over 31.4 µg/mL; in that of `CCOc1ccc(C(=O)N2CCN(c3ncccn3)CC2)cc1`, 42.3 µg/mL (≈ 135 µM). Under `Cn1c(=O)n(Cc2ccccc2)c(=O)c2c1nc1n2CCN1Cc1ccco1` stands 51.8 µg/mL (≈ 137 µM); under `O=S(=O)(c1ccccc1)N(Cc1ccccn1)Cc1ccccn1`, over 50.9 µg/mL.

As for `CCOc1ccc(NC(=O)N[C@@H](Cc2ccccc2)C(=O)O)cc1`, the solubility (kinetic) was over 49.3 µg/mL. In the case of `O=C(NCc1ccncc1)C1=NN(c2ccccc2)C(=O)CC1` it was over 46.3 µg/mL; in that of `O=C(c1cccc(C(F)(F)F)c1)N1CCc2c([nH]c3ccccc23)C1C(F)(F)F` (centres undefined), under 0.4 µg/mL; in that of `O=C(CNC(=O)c1ccccc1Cl)Nc1ccncc1`, over 43.5 µg/mL. On to `Cc1ccc(C(=O)NCCNC(=O)c2ccco2)cn1`, for which the kinetic solubility was determined as 31.7 µg/mL (≈ 116 µM). In the case of `O=C(CCC(=O)c1ccccc1)Nc1ccc(C(=O)O)cc1` it was over 44.6 µg/mL; in that of `Cc1ccc(O)c(NC(=O)c2cc(-c3ccccc3)on2)c1`, under 0.3 µg/mL; in that of `COc1ccc(C(=O)O)cc1S(=O)(=O)NCc1ccccn1`, over 48.4 µg/mL.

One may read the solubility (kinetic) as the concentration staying in solution when a stock, usually in DMSO, is diluted into the medium.
